Laboratory results as given in patent US9096565B2, “Inhibitors of histone deacetylase” (MethylGene Inc., priority 2007, dated 2015).

The compounds below were run against one or more of HDAC-4, HDAC-5, HDAC-6, HDAC-7, HDAC-8, HDAC-9, HDAC-10 and HDAC-11 (assay: Inhibition of histone deacetylase enzymatic activity (summary statement over isoforms)). Details: Table 3, selected examples; HDAC isoform not given.
Assay type: biochemical
Procedure, shortened: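 HDAC enzyme mix with compound was preincubated 5 min at room temperature. Reaction was started at 37 °C with Boc-Lys(trifluoroacetyl)-AMC substrate and run 20-30 min. It was stopped with trypsin (1 mg/mL) plus a known HDAC inhibitor to release the fluorogenic AMC.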
`O=C(NO)C(c1ccccc1)N1CCN(C2=Nc3ccccc3Oc3ccc(Cl)cc32)CC1` (centres unmarked) [Compound 5-20, (E)-2-(4-(2-chlorodibenzo[b,f][1,4]oxazepin-11-yl)piperazin-1-yl)-N-hydroxy-2-phenylacetamide] showed an IC50 of less than 1000 nM.
Work on `CN(C)c1ccc(-c2ccc(C(C(=O)NO)c3ccccc3)cc2)cc1` (centres unmarked) [Compound 5-21, 2-(4′-(dimethylamino)biphenyl-4-yl)-N-hydroxy-2-phenylacetamide] yielded an IC50 of less than 1000 nM.
`O=C(NO)C(c1ccccc1)c1ccc(N2CCOCC2)cc1` (centres unmarked) [Compound 5-22, N-hydroxy-2-(4-morpholinophenyl)-2-phenylacetamide] gave an IC50 of less than 1000 nM.
For `O=C(NO)C(c1ccccc1)c1ccc(-c2cncnc2)cc1` (centres unmarked) [Compound 5-23, N-hydroxy-2-phenyl-2-(4-(pyrimidin-5-yl)phenyl)acetamide], the IC50 was less than 1000 nM.
For `COc1ccc(C2CCN(C(C(=O)NO)c3ccccc3)CC2)cc1` (centres unmarked) [Compound 5-24, N-hydroxy-2-(4-(4-methoxyphenyl)piperidin-1-yl)-2-phenylacetamide], the IC50 was less than 1000 nM.
With `O=C(NO)C(c1ccccc1)c1ccc(N2CCN(c3ccccc3)CC2)cc1` (centres unmarked) [Compound 5-26, N-hydroxy-2-phenyl-2-(4-(4-phenylpiperazin-1-yl)phenyl)acetamide] the IC50 was less than 1000 nM.
Compound `O=C(NO)C(Sc1ccc2ccccc2c1)c1ccccc1` (centres unmarked) [Compound 5-28, N-hydroxy-2-(naphthalen-2-ylthio)-2-phenylacetamide] has an IC50 of less than 1000 nM.
`O=C(NO)C(c1ccccc1)c1cccc(-c2ccccc2)c1` (centres unmarked) [Compound 5-29, 2-(biphenyl-3-yl)-N-hydroxy-2-phenylacetamide] gave an IC50 of less than 1000 nM.
For `O=C(NO)C(c1ccccc1)c1cccc(-c2ccncc2)c1` (centres unmarked) [Compound 5-30, N-hydroxy-2-phenyl-2-(3-(pyridin-4-yl)phenyl)acetamide], the IC50 was less than 1000 nM.
Compound `O=C(NO)C1c2ccccc2CCc2ccccc21` [Compound 5-31] has an IC50 of 1000 to 15000 nM.
In the case of `CN(C)c1ccc(C(C(=O)NO)c2ccccc2)c2ccccc12` (centres unmarked) [Compound 5-32, 2-(4-(dimethylamino)naphthalen-1-yl)-N-hydroxy-2-phenylacetamide], the IC50 is reported as 1000 to 15000 nM.
`O=C(NO)C(c1ccccc1)c1ccc(OCc2ccccc2)cc1` (centres unmarked) [Compound 5-33, 2-(4-(benzyloxy)phenyl)-N-hydroxy-2-phenylacetamide] was tested, and the IC50 was less than 1000 nM.
`O=C(NO)C(c1ccccc1)c1ccc(-c2ccc(N3CCOCC3)cc2)cc1` (centres unmarked) [Compound 5-34, N-hydroxy-2-(4′-morpholinobiphenyl-4-yl)-2-phenylacetamide] gave an IC50 of less than 1000 nM.
`O=C(NO)C(c1ccccc1)N1CCC(c2nc3ccccc3o2)CC1` (centres unmarked) [Compound 5-35, 2-(4-(benzo[d]oxazol-2-yl)piperidin-1-yl)-N-hydroxy-2-phenylacetamide] gave an IC50 of less than 1000 nM.
In the case of `O=C(NO)C(c1ccccc1)c1ccc(O)cc1` (centres unmarked) [Compound 5-36, N-hydroxy-2-(4-hydroxyphenyl)-2-phenylacetamide], the IC50 is reported as less than 1000 nM.
With `O=C(NO)C(c1ccccc1)c1nnc(-c2ccc(C(F)(F)F)cc2)s1` (centres unmarked) [Compound 5-37, N-hydroxy-2-phenyl-2-(5-(4-(trifluoromethyl)phenyl)-1,3,4-thiadiazol-2-yl)acetamide] the IC50 was less than 1000 nM.
Work on `O=C(NO)C(c1ccccc1)c1nnc(-c2ccc3c(c2)OCO3)s1` (centres unmarked) [Compound 5-38, 2-(5-(benzo[d][1,3]dioxol-5-yl)-1,3,4-thiadiazol-2-yl)-N-hydroxy-2-phenylacetamide] yielded an IC50 of less than 1000 nM.
For `O=C(NO)C(c1ccccc1)c1nnc(-c2ccccc2-c2ccccc2)s1` (centres unmarked) [Compound 5-39, 2-(5-(biphenyl-2-yl)-1,3,4-thiadiazol-2-yl)-N-hydroxy-2-phenylacetamide], the IC50 was 1000 to 15000 nM.
`O=C(NO)C(c1ccccc1)c1ccc(OCCN2CCOCC2)cc1` (centres unmarked) [Compound 5-40, N-hydroxy-2-(4-(2-morpholinoethoxy)phenyl)-2-phenylacetamide] showed an IC50 of less than 1000 nM.
`O=C(NO)C(c1ccccc1)c1ccc(-c2ccc3[nH]ccc3c2)cc1` (centres unmarked) [Compound 5-41, 2-(4-(1H-indol-5-yl)phenyl)-N-hydroxy-2-phenylacetamide] gave an IC50 of less than 1000 nM.
In the case of `O=C(NO)C(c1ccccc1)N1CCN(C(=O)c2ccccc2)CC1` (centres unmarked) [Compound 5-42, 2-(4-benzoylpiperazin-1-yl)-N-hydroxy-2-phenylacetamide], the IC50 is reported as 1000 to 15000 nM.
With `O=C(NO)C(c1ccccc1)N1CCN(c2ccc(C(F)(F)F)cc2)CC1` (centres unmarked) [Compound 5-43, N-hydroxy-2-phenyl-2-(4-(4-(trifluoromethyl)phenyl)piperazin-1-yl)acetamide] the IC50 was less than 1000 nM.
For `CCN(Cc1ccccc1)c1ccc(C(C(=O)NO)c2ccccc2)cc1` (centres unmarked) [Compound 5-44, 2-(4-(benzyl(ethyl)amino)phenyl)-N-hydroxy-2-phenylacetamide], the IC50 was less than 1000 nM.
`Cc1cc(-c2ccc(C(C(=O)NO)c3ccccc3)cc2)ccc1F` (centres unmarked) [Compound 5-45, 2-(4′-fluoro-3′-methylbiphenyl-4-yl)-N-hydroxy-2-phenylacetamide] gave an IC50 of less than 1000 nM.
Compound `O=C(NO)C(Sc1nc2cccnc2s1)c1ccccc1` (centres unmarked) [Compound 5-46, N-hydroxy-2-phenyl-2-(thiazolo[5,4-b]pyridin-2-ylthio)acetamide] has an IC50 of less than 1000 nM.
In the case of `O=C(NO)C(c1ccccc1)N1CCN(c2ccc(C(F)(F)F)cn2)CC1` (centres unmarked) [Compound 5-48, N-hydroxy-2-phenyl-2-(4-(5-(trifluoromethyl)pyridin-2-yl)piperazin-1-yl)acetamide], the IC50 is reported as less than 1000 nM.
For `O=C(NO)C(c1ccccc1)c1ccc(-c2ccc(F)c(F)c2)cc1` (centres unmarked) [Compound 5-49, 2-(3′,4′-difluorobiphenyl-4-yl)-N-hydroxy-2-phenylacetamide], the IC50 was less than 1000 nM.
`COc1ccc2sc(SC(C(=O)NO)c3ccccc3)nc2c1` (centres unmarked) [Compound 5-50, N-hydroxy-2-(5-methoxybenzo[d]thiazol-2-ylthio)-2-phenylacetamide] was tested, and the IC50 was less than 1000 nM.
With `O=C(NO)C(c1ccccc1)c1ccc(N2CCC(Cc3ccccc3)CC2)cc1` (centres unmarked) [Compound 5-51, 2-(4-(4-benzylpiperidin-1-yl)phenyl)-N-hydroxy-2-phenylacetamide] the IC50 was less than 1000 nM.
Work on `O=C(NO)C(c1ccccc1)c1nnc(-c2ccccc2Oc2ccccc2)s1` (centres unmarked) [Compound 5-52, N-hydroxy-2-(5-(2-phenoxyphenyl)-1,3,4-thiadiazol-2-yl)-2-phenylacetamide] yielded an IC50 of less than 1000 nM.
`O=C(NO)C(c1ccccc1)c1nnc(COc2ccccc2)s1` (centres unmarked) [Compound 5-53, N-hydroxy-2-(5-(phenoxymethyl)-1,3,4-thiadiazol-2-yl)-2-phenylacetamide] was tested, and the IC50 was less than 1000 nM.
In the case of `O=C(NO)C(c1ccccc1)c1nnc(-c2ccc3ccccc3c2)s1` (centres unmarked) [Compound 5-54, N-hydroxy-2-(5-(naphthalen-2-yl)-1,3,4-thiadiazol-2-yl)-2-phenylacetamide], the IC50 is reported as 1000 to 15000 nM.
`O=C(NO)C(c1ccccc1)c1nnc(-c2ccc3[nH]ccc3c2)s1` (centres unmarked) [Compound 5-55, 2-(5-(1H-indol-5-yl)-1,3,4-thiadiazol-2-yl)-N-hydroxy-2-phenylacetamide] was tested, and the IC50 was less than 1000 nM.
In the case of `O=C(NO)C1c2ccccc2N(Cc2ccccc2)c2ccccc21` [Compound 5-56, 10-benzyl-N-hydroxy-9,10-dihydroacridine-9-carboxamide], the IC50 is reported as less than 1000 nM.
`O=C(NO)C(c1ccccc1)N1CCN(c2ccc(F)cc2)CC1` (centres unmarked) [Compound 5-57, 2-(4-(4-fluorophenyl)piperazin-1-yl)-N-hydroxy-2-phenylacetamide] gave an IC50 of 1000 to 15000 nM.
For `CN(C)c1ccc(-c2ccc(C(C(=O)NO)c3ccccc3)cc2)cn1` (centres unmarked) [Compound 5-58, 2-(4-(6-(dimethylamino)pyridin-3-yl)phenyl)-N-hydroxy-2-phenylacetamide], the IC50 was less than 1000 nM.
In the case of `O=C(NO)C(Sc1nc2cc(Cl)ccc2s1)c1ccccc1` (centres unmarked) [Compound 5-59, 2-(5-chlorobenzo[d]thiazol-2-ylthio)-N-hydroxy-2-phenylacetamide], the IC50 is reported as less than 1000 nM.
`O=C(NO)C(c1ccccc1)N1CCN(C(=O)OCc2ccccc2)CC1` (centres unmarked) [Compound 5-61, benzyl 4-(2-(hydroxyamino)-2-oxo-1-phenylethyl)piperazine-1-carboxylate] showed an IC50 of 1000 to 15000 nM.
`O=C(NO)C(c1ccccc1)N1CCC(c2ccc(F)cc2)CC1` (centres unmarked) [Compound 5-62, 2-(4-(4-fluorophenyl)piperidin-1-yl)-N-hydroxy-2-phenylacetamide] showed an IC50 of less than 1000 nM.
In the case of `O=C(NO)C(c1ccccc1)c1ccc(C#Cc2cccnc2)cc1` (centres unmarked) [Compound 5-63, N-hydroxy-2-phenyl-2-(4-(pyridin-3-ylethynyl)phenyl)acetamide], the IC50 is reported as less than 1000 nM.
For `O=C(NO)C(c1ccccc1)c1nnc(C2c3ccccc3Oc3ccccc32)s1` (centres unmarked) [Compound 5-64, 2-(5-(9H-xanthen-9-yl)-1,3,4-thiadiazol-2-yl)-N-hydroxy-2-phenylacetamide], the IC50 was less than 1000 nM.
`O=C(NO)C(c1ccccc1)c1ccc(N2CCN(Cc3ccccc3)CC2)cc1` (centres unmarked) [Compound 5-65, 2-(4-(4-benzylpiperazin-1-yl)phenyl)-N-hydroxy-2-phenylacetamide] gave an IC50 of less than 1000 nM.
With `O=C(NO)C(c1ccccc1)c1ccc(N2CCN(c3ccccn3)CC2)cc1` (centres unmarked) [Compound 5-66, N-hydroxy-2-phenyl-2-(4-(4-(pyridin-2-yl)piperazin-1-yl)phenyl)acetamide] the IC50 was less than 1000 nM.
In the case of `O=C(NO)C(c1ccccc1)c1ccc(N2CCN(c3cccc(C(F)(F)F)c3)CC2)cc1` (centres unmarked) [Compound 5-67, N-hydroxy-2-phenyl-2-(4-(4-(3-(trifluoromethyl)phenyl)piperazin-1-yl)phenyl)acetamide], the IC50 is reported as less than 1000 nM.
Work on `O=C(NO)C(c1ccccc1)c1ccc(CCCCc2ccccc2)cc1` (centres unmarked) [Compound 5-68, N-hydroxy-2-phenyl-2-(4-(4-phenylbutyl)phenyl)acetamide] yielded an IC50 of less than 1000 nM.
`O=C(NO)C(c1ccc(N2CCCC2)cc1)c1ccc2c(c1)CCO2` (centres unmarked) [Compound 5-69, 2-(2,3-dihydrobenzofuran-5-yl)-N-hydroxy-2-(4-(pyrrolidin-1-yl)phenyl)acetamide] was tested, and the IC50 was less than 1000 nM.
With `O=C(NO)C(c1ccccc1)c1ccc(N2CCCCC2)cc1` (centres unmarked) [Compound 5-70, N-hydroxy-2-phenyl-2-(4-(piperidin-1-yl)phenyl)acetamide] the IC50 was less than 1000 nM.
